Values quoted from earlier work as cited in US8765743B2, “Compounds” (Glaxosmithkline Intellectual Property Development Limited, priority 2008, dated 2014).
pIC50: −log10 of the molar value. Like-named read-outs stand apart in the source and are kept apart here.

What was measured:
CK2 protein kinase = CK2 protein kinase (Homo sapiens, UniProt P68400)
Sequence of CK2 protein kinase (P68400 whole entry): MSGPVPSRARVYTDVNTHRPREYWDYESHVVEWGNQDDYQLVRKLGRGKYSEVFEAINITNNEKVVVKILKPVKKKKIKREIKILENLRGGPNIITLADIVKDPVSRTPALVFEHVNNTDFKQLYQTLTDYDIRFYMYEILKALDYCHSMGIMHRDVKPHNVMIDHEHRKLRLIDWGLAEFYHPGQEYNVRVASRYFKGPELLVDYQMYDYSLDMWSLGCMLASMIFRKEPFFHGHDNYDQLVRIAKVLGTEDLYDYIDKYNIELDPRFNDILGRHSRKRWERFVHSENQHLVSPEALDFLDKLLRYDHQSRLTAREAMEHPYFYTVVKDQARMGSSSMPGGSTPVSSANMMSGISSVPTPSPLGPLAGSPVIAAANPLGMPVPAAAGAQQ

Compound | pIC50 (Class I PI3-kinases; Fruman et al. 1998, read-out: IC50 values against each of these PI3-kinases) | pIC50 (CK2 protein kinase) | pIC50 (Class I PI3-kinases; read-out: IC50 values against each of the various Class I PI3-kinases)
O=c1cc(N2CCOCC2)oc2c(-c3ccccc3)cccc12 [LY294002] | 4.70 to 4.82 | 5.00 to 5.30 | –
wortmannin | – | – | 8.00 to 9.00
